Results: patent publication US20060252827A1, “Therapeutic use of acyglycerols and the nitrogen-and sulphur-containing analogues thereof” (priority 2003, published 2006)

How the values were obtained:
LDL = LDL oxidation by copper, conjugated diene formation (OD 234 nm); type: biochemical; conditions: for decrease in the maximum amount of conjugated dienes formed: copper alone 496 nmol per mg of LDL, FIG. 2c; for rate of conjugated diene formation (LDL oxidation rate): copper alone 3, FIG. 2b; for increase in the lag phase: relative to copper alone; for increase in the lag phase / lag phase for conjugated diene formation: FIG. 2a; for lag phase for conjugated diene formation: copper alone 104 minutes
Description: LDL were prepared as described in Lebeau et al. (Lebeau, Furman et al. 2000). The solutions of the test compounds were prepared at 10^−2 M in ethanol and diluted in PBS so that the final concentration ranged from 0.1 to 100 μM with a total ethanol concentration of 1% (V/V).
Before oxidation, EDTA was removed from the LDL preparation by dialysis. The oxidation reaction was then carried out at 30° C. by adding 100 μl of 16.6 μM CuSO4 or 2 mM MPH to 800 μl of LDL (125 μg protein/ml) and 100 μl of a test compound solution. The formation of dienes, the species to be followed, was measured by the optical density at 234 nm in the samples treated with the compounds in the presence or absence of copper (or MPH). Optical density at 234 nm was measured every 10 minutes for 8 hours on a thermostated spectrophotometer (Kontron Uvikon 930). The analyses were carried out in triplicate. A compound was considered to have antioxidant activity when it shifted the lag phase latency relative to the control sample. […] FIG. 2 presents an example of the results obtained with the inventive compounds.

[1] = target: T1, hPPARα (Gal4/PPARα chimera) (Homo sapiens, UniProt Q07869); assay: Gal4/PPARα transactivation system in HepG2 cells (luciferase); type: cell-based; conditions: HepG2, 24 h, PC liposomes, FIG. 3
T1 construct: expressed in transfected cells; host or cells: HepG2
T1 sequence (Q07869 239-466 limits assumed): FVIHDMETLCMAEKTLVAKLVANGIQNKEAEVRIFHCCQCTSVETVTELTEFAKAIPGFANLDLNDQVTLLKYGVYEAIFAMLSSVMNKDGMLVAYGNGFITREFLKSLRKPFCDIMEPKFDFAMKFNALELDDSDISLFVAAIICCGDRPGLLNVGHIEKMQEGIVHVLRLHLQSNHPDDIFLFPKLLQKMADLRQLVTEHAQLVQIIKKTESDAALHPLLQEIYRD
Description: PPAR activation was tested in vitro in RK13 fibroblast cell lines or in a […] line HepG2 by measuring the transcriptional activity of chimeras composed of the DNA binding domain of the yeast gal4 transcription factor and the ligand binding domain of the different PPARs. The example below is given for HepG2 cells.
HepG2 cells were from ECACC (Porton Down, UK) and were grown in DMEM medium supplemented with 10% (V/V) fetal calf serum, 100 U/ml penicillin (Gibco, Paisley, UK) and 2 mM L-glutamine (Gibco, Paisley, UK). The culture medium was changed every two days. Cells were kept at 37° C. in a humidified 95% air/5% CO2 atmosphere.
The plasmids pG5TkpGL3, pRL-CMV, pGal4-hPPARα, pGal4-hPPARγ and pGal4-f have been described by Raspe et al. (Raspe, Madsen et al. 1999). The pGal4-mPPARα and pGal4-hPPARβ constructs were obtained by cloning PCR-amplified DNA fragments corresponding to the DEF domains of the mouse PPARα and human PPARβ nuclear receptors, respectively, into the pGal4-f vector.
HepG2 cells were seeded in 24-well culture dishes at 5×10^4 cells/well and transfected for 2 hours with the reporter plasmid pG5TkpGL3 (50 ng/well), the expression vectors pGal4-f, pGal4-mPPARα, pGal4-hPPARα, pGal4-hPPARγ, pGal4-hPPAβ (100 ng/well) and the transfection efficiency control vector pRL-CMV (1 ng/well) according to the previously described protocol (Raspe, Madsen et al. 1999), then incubated for 36 hours with the test compounds. At the end of the experiment, the cells were lysed (Gibco, Paisley, UK) and luciferase activity was determined with a Dual-Luciferase™ Reporter Assay System kit (Promega, Madison, Wis., USA) according to the supplier's instructions. The protein content of the cell extracts was then measured with the Bio-Rad Protein Assay (Bio-Rad, Munich, Germany) as directed by the supplier.
FIG. 3: HepG2 cells transfected with Gal4/PPARα plasmids were incubated with different concentrations of inventive compounds (5, 15, 50 and 100 μM) for 24 h and with different concentrations of the vehicle (PC). The results are expressed as the induction factor (luminescent signal relative to untreated cells) after the different treatments. […] The induction factors for compound Ex 4p were 35 at 100 μM, 44 at 50 μM, 36 at 15 μM and 24 at 5 μM. In contrast, when the cells were incubated with the vehicle (PC liposome), no significant induction was observed.

[2] = tested on: ischemia induced by occlusion of the middle cerebral artery; assay: Cerebral ischemia-reperfusion model, curative or acute phase treatment, brain infarct volume; type: in vivo, Wistar rats
Description: (§1) Animals such as those described previously were used for this experiment. Animals were anesthetized by intraperitoneal injection of 300 mg/kg chloral hydrate. A rectal probe was inserted and body temperature was maintained at 37° C.±0.5° C. Blood pressure was monitored throughout the experiment. Under a surgical microscope, the right carotid artery was exposed by a median incision in the neck. The pterygopalatine artery was ligated at its origin and an arteriotomy was fashioned in the external carotid artery so as to insert a nylon monofilament, which was gently advanced to the common carotid artery and then into the internal carotid artery so as to occlude the origin of the middle cerebral artery. The filament was withdrawn one hour later to allow reperfusion. Animals first subjected to ischemia-reperfusion were treated with the inventive compounds by the oral route (such as previously described in CMC+Tween vehicle) one or more times after reperfusion (600 mg/kg/day or 300 mg/kg/day bid). 24, 48 or 72 hours after reperfusion, animals previously treated or not with the compounds were euthanized by pentobarbital overdose. Brains were rapidly frozen and sliced. Sections were stained with cresyl violet. Unstained zones of the brain sections were considered to be damaged by the infarct. Areas (of the infarct and the two hemispheres) were measured, the volume of the infarct and the two hemispheres was calculated and the corrected infarct volume was determined by the following formula: (corrected infarct volume=infarct volume−(volume of right hemisphere−volume of left hemisphere)) to compensate for cerebral oedema.

[3] = tested on: ischemia induced by occlusion of the middle cerebral artery; assay: Cerebral ischemia-reperfusion model, prophylactic treatment, brain infarct volume; type: in vivo, Wistar rats
Description: as §1, with “Wistar rats weighing 200 to 350 g were used” for “Animals such as those described previously were used”, “this experiment. Animals were treated by gavage with the inventive compounds (600 mg/kg/day) in suspension in the vehicle (0.5% carboxycellulose (CMC) and 0.1% Tween) or with the vehicle alone, for 14 days before ischemia induction by occlusion of the middle cerebral artery. Animals were” for “this experiment. Animals were”, “allow reperfusion. Twenty-four hours after” for “allow reperfusion. Animals first subjected to ischemia-reperfusion were treated with the inventive compounds by the oral route (such as previously described in CMC+Tween vehicle) one or more times after reperfusion (600 mg/kg/day or 300 mg/kg/day bid). 24, 48 or 72 hours after”, “with the inventive compounds were” for “with the compounds were”, “hemispheres) were measured and the volume” for “hemispheres) were measured, the volume”

[4] = prophylactic treatment, FIG. 4b

Molecule | decrease in the maximum amount of conjugated dienes formed (LDL; compound at 10^-4 M) | rate of conjugated diene formation (LDL oxidation rate) (LDL; compound at 10^-4 M) | increase in the lag phase (LDL) | effect on the LDL oxidation rate (in words) (LDL; FIG. 2b) | induction factor (luminescent signal relative to untreated cells) ([1]; 5 μM) | induction factor (luminescent signal relative to untreated cells) ([1]; 15 μM) | induction factor (luminescent signal relative to untreated cells) ([1]; 50 μM) | induction factor (luminescent signal relative to untreated cells) ([1]; 100 μM) | also measured
1,3-dilinoleyl-2-tetradecylthioacetylglycerol [Ex 4h] | 24% | 2.5 nmol/min/mg of LDL | 43% | – | – | – | – | – | –
CCCCCCCCCCCCCCCC(=O)OCC(COC(=O)CCCCCCCCCCCCCCC)OC(=O)CSCCCCCCCCCCCCCC [Ex 4g, 1,3-dipalmitoyl-2-tetradecylthioacetylglycerol] | 31% | 1.8 nmol/min/mg of LDL | 170% | – | – | – | – | – | lag phase for conjugated diene formation (LDL; compound at 10^-4 M): 282 min
CCCCCCCCCCCCCCSCC(=O)OCC(O)CO (stereo not drawn) [Ex 2a, 1-tetradecylthioacetylglycerol] | – | – | 67% | did not significantly alter | 17 fold | 31 fold | 41 fold | 62 fold | –
CCCCCCCCCCCCCCSCC(=O)OC(COC(C)=O)COC(C)=O [Ex 4p, 1,3-diacetyl-2-tetradecylthioacetylglycerol] | – | – | – | – | 24 fold | 36 fold | 44 fold | 35 fold | –
CCCCCCCCCCCCCCCC(=O)OC(COC(=O)CSCCCCCCCCCCCCCC)COC(=O)CSCCCCCCCCCCCCCC [Ex 4o, 1,3-ditetradecylthioacetyl-2-palmitoylglycerol] | – | – | 37% | did not significantly alter | – | – | – | – | –
CCCCCCCCCCCCCCSCC(=O)OC(COC(=O)CCCCCCC)COC(=O)CCCCCCC [Ex 4q, 1,3-dioctanoyl-2-tetradecylthioacetylglycerol] | – | – | 54% | did not significantly alter | – | – | – | – | –
CCCCCCCCCCCCCCSCC(=O)OCC(COC(=O)CSCCCCCCCCCCCCCC)OC(=O)CSCCCCCCCCCCCCCC [Ex 4a, 1,2,3-tritetradecylthioacetylglycerol] | 60% | 1 nmol/min/mg of LDL | 160% | – | 9 fold | 18 fold | 30 fold | 41 fold | decrease in the oxidation rate (LDL; compound at 10^-4 M, FIG. 2b): 66%; lag phase for conjugated diene formation (LDL; compound at 10^-4 M): 270 min; lesions smaller than control animals ([2]; 600 mg/kg/day for 24 hours after ischemia, FIG. 4c): 27%; infarct volume ([2]; 600 mg/kg/day for 24 hours after ischemia, controls 180 mm^3, FIG. 4c): 132 mm^3; lesions smaller than control animals ([2]; 600 mg/kg/day for 72 hours after ischemia, FIG. 4e): 40%; corrected infarct volume ([2]; 600 mg/kg/day for 72 hours after ischemia, controls 180 mm^3, FIG. 4e): 110 mm^3; decrease in lesions, cortical infarct (uncorrected infarct volume) ([2]; acute phase 24 h, FIG. 4d): 25%; effect on striatal infarct (uncorrected infarct volume), in words ([2]; acute phase 24 h, FIG. 4d): no significant decrease in lesions; decrease in lesions, cortical infarct (uncorrected infarct volume) ([2]; acute phase 72 h, FIG. 4f): 32%; decrease in lesions, striatal infarct (uncorrected infarct volume) ([2]; acute phase 72 h, FIG. 4f): 23%; decrease in lesion size relative to control animals ([3]; oral, 300 mg/kg/day bid, 14 days before ischemia, FIG. 4a): 22%; corrected total infarct volume (lesion size) ([3]; oral, 300 mg/kg/day bid, 14 days before ischemia, controls 186 mm^3, FIG. 4a): 145 mm^3; decrease in lesions, cortical infarct (uncorrected infarct volume) [3, 4]: 22%; effect on striatal infarct (uncorrected infarct volume), in words [3, 4]: no significant decrease in lesions
